Measured values from US5856535A, “Aminosterol ester compounds” (priority 1996, dated 1999).
≈ marks a conversion by molar mass, not a printed value. Entries after “also recorded” stand apart in the source; their conditions may differ.

Key:
splenocytes = test: mitogen proliferation assay (splenocytes of treated mice, Con A); type: in vivo; conditions: 10 mg/kg iv
Description: For the attached Tables, the mitogen proliferation assay was performed by treating mice (male or female) with various amounts of the aminosterol test compounds. Some time later (typically between 2 hours and 14 days), the mice are sacrificed and their spleens removed. Splenocytes are harvested and cultured in the presence of between 1-10 μg/ml of Con A (Sigma) for 48 hours. See James Morgan, "Monoclonal Antibody Production," Modern Methods in Pharmacology, pp. 29-67, eds., Spector and Back, 1988. This excerpt is entirely incorporated herein by reference. Cell proliferation is monitored either by direct cell counting or by measurement of the incorporation of radioactive thymidine.

[1] = test system: Xenopus laevis Stages 59-60 tadpoles; test: tadpole assay; type: in vivo; conditions: for vascular effect in tadpole (in words): about 60 minutes, 10 μg/ml where stated
melanoma cells = test: MTT assay for cell number; type: cell-based; conditions: Tables III-V; read-out: MTT assay IC50
Description: In Table V, several aminosterol esters show efficacy in killing melanoma cells in the MTT assay.
The MTT assay for cell number is performed as follows. Cells are counted on a hemocytometer and diluted to a concentration of approx. 10,000 cells/well (55,000 cells/ml×0.18 ml). Cells are then plated in a 96 well microtiter plate and allowed to attach overnight. The next day, compounds are serially diluted from 1000 to 15.6 μg/ml and run in duplicate. 20 μl of each dilution are transferred to the pre-seeded microtiter plates. The final concentrations are 100 to 1.56 μg/ml. The plates are then incubated for 48 hours at 37° C. in 5% CO2. After 48 hours, MTT solution is added. The plate is re-incubated for 4 hours. Readings are done by removing all but 30 μl of media and MTT solution and dissolving the formazan crystals with DMSO. The formazan is dissolved by mixing on a rotating plate at low speed for about 30 minutes. Absorbance of converted dye is measured at a wavelength of 560 nm with background subtraction at 630 nm. The percent survival is determined by a comparison between the mean absorbance of the duplicate test lanes and the growth control.

[2] = inhibition of MSI-1436 binding; conditions: 3H-MSI-1436 at 20 μg/mL
PBMC toxicity = conditions: human
HIV = test: inhibition of HIV replication in vitro (HIV Inhib.); type: cell-based
[3] = test system: human microvascular cells; test: endothelial cell cord formation assay (human microvascular cells, VEGF and bFGF, collagen matrix); type: cell-based
Excerpt: Endothelial cells have the capacity in vitro to form tubular aggregates resembling capillaries in various early stages of formation. This conversion occurs under relatively specific conditions, in which essential growth factors along with an effective substratum are provided. It has been shown that both the interaction of growth factors with the endothelial cell and its attachment to a substratum activate the NHE. The activation of this exchanger is believed to be required for subsequent morphologic transformation of the endothelial cell into a multicellular tubular structure.
To assess the effect of compounds on the cord-like structures formed by human microvascular cells when plated in the presence of VEGF (Vascular Endothelial Growth Factor) and basic fibroblast growth factor on a collagen matrix, a standard cord formation assay was performed using the method described by Goto, et al., "Synergistic Effects of Vascular Endothelial Growth Factor and Basic Fibroblast Growth Factor on the Proliferation and Cord Formation of Bovine Capillary Endothelial Cells Within Collagen Gels," Laboratory Investigation, Vol. 69, No. 5, 1993, pp. 508-517. This article is entirely incorporated herein by reference.

[4] = test system: chick embryo vitelline capillaries; test: chick embryo vitelline capillary regression assay; type: in vivo; conditions: for effect on vitelline capillaries (in words): 3- to 5-day chick embryo
Description: Using the chick embryo vitelline capillaries assay, various aminosterol compounds were tested for their ability to induce capillary regression. Each compound was applied in 0.1 ml of 15% Ficol 400 and PBS onto the embryo, and vascular regression was assessed after 60 minutes. These tests were conducted by the chorioallantoic membrane anti-angiogenesis assay by applying the material to be assayed to 3 day old fertilized chick embryos in the manner described by Wilks et al., "Inhibition of Angiogenesis With Combination Angiostatic Steroids and Suramin," Radiation Biology, Vol. 60, Nos. 1/2, 1991, pp. 73-77, which article is entirely incorporated herein by reference.
The 3-day chick embryo consists of an embryonic disc from which numerous vessels emerge and return, forming a "figure 8"-shaped structure--the embryo in the center with vascular loops extending outward over both poles. […] Following a lag period of around 15 minutes, the constriction of continuity between capillary and secondary vessels, generally on the "venous" side, was observed. Continued pulsatile blood flow progressed, resulting in a "swelling" of the blind tube, followed by a pinching off of the remaining connection and formation of an enclosed vascular sac resembling a "blood island." This process progressed until only the largest vessels remained intact.

[5] = test system: bacteria, fungi and protozoa; conditions: cited from earlier work

Row | SMILES | Rel. potency to MSI-1436, Mitogen Proliferation Assay (splenocytes) | vascular effect in tadpole (in words) [1] | IC50 (melanoma cells) [µg/mL] | % Inhib. of MSI-1436 Binding @ 100 μg/mL [2] [%] | cytotoxicity at 14 µM (PBMC toxicity) [%] | % Inhib of HIV (HIV; 140 nM, 0.14 µM) [%] | inhibition at 0.14 µM (HIV; Human immunodeficiency virus 1, 140 nM, read-out: % Inhib of HIV) [%] | minimal effective concentration ([3]; Homo sapiens, Endothelial cell, text to the table, read-out: concentration at which cord formation is inhibited) [µg/mL] | effect on cell viability or proliferation (in words) ([3]; at these concentrations) | unaffected functions in tadpole (in words) ([1]; 10 μg/ml) | effect on vitelline capillaries (in words) [4] | effect on vitelline capillaries (in words) ([4]; listed as squalamine) | hemorrhage, hemolysis and heartbeat of embryo (in words) ([4]; 3-day chick embryo) | antibiotic activity (in words) [5]
1 | CC(C)[C@@H](CC[C@@H](C)[C@H]1CC[C@H]2[C@@H]3[C@H](O)C[C@H]4C[C@@H](NCCCNCCCCNCCCN)CC[C@]4(C)[C@H]3CC[C@]12C)OS(=O)(=O)O [Compound 1436, reference compound] | 1 | common vascular occlusive effect | 7.8 (≈ 11.4 µM) | 82 | 0 | 78 | 76 | – | – | – | – | – | – | –
2 | CC(C)[C@@H](CC[C@@H](C)[C@H]1CC[C@H]2[C@@H]3[C@H](O)C[C@H]4C[C@@H](NCCCNCCCCN)CC[C@]4(C)[C@H]3CC[C@]12C)OS(=O)(=O)O [Squalamine, squalamine, reference compound] | – | blood flow through the capillaries of the tail shut down; also recorded: enhanced regression of the most distal aspects of the tail; also recorded: common vascular occlusive effect | – | – | – | – | – | ~0.1 | does not appear to profoundly affect cell viability or proliferation | continued heartbeat; also recorded: unaltered blood flow through the fine capillaries of the hands and feet | disrupt vitelline capillaries in 3- to 5-day chick embryos | dramatic and rapid effect on capillary vessel integrity; also recorded: especially active | embryonic heart continued to beat vigorously; also recorded: No hemorrhage was seen; also recorded: absence of hemolysis | broad-spectrum antibiotic, killing bacteria, fungi and protozoa
